Assay results taken from patent US20110229447A1, “NUTRITIONAL SUPPORT TO PREVENT OR MODERATE BONE MARROW PARALYSIS OR NEUTROPENIA DURING ANTI-CANCER TREATMENT” (priority 2008, published 2011).

Key:
γδ T cells = details: acid hydrolysed, diluted in media; 5%-75%; cited from earlier work
[1] = Example 2: body weight, haematology and flow cytometry of immune cells in tumor-bearing mice on supplemented diets with or without chemotherapy; assay type: in vivo, C57BL/6 (H-2b) mice; details: for immune cell population / concentration: during the second (tumor-induced) phase; for Global lymphocyte population: following chemotherapy
Protocol: Mice. […] The animals were distributed into 7 different group diets. There was a control group that received the diet AIN 93 for adult rodents (maintenance). Test diets were administered in doses appropriate to the animal model: (a) Ctrl diet were supplemented with 1% (w/w) L-arginine, (b) 25% of the protein was replaced by glutamine, (c) 1% (w/w) L-citrulline, (d) 1 g/Kg body weight with active hexose correlated compound, (e) 20 mg/day of RNA nucleotides and (f) 25 mg/day of lactoferrin. […] Control animals without chemotherapeutic treatment were run in parallel for all tested diets. Body weight was assessed every two days. Blood samples were obtained at day 2, 4 and 10 after the chemo-treatment and at sacrifice (14 or 28 days). An autopsy was performed and tumor mass was assessed.
Haematological Evaluation.
Flow Cytometric Analysis.

MCA-OVA tumor cells = assay: Example 2: tumor growth in mice on supplemented diets with or without chemotherapy; assay type: in vivo, C57BL/6 (H-2b) mice
Protocol: Mice. […] The animals were distributed into 7 different group diets. There was a control group that received the diet AIN 93 for adult rodents (maintenance). […] Control animals without chemotherapeutic treatment were run in parallel for all tested diets. Body weight was assessed every two days. Blood samples were obtained at day 2, 4 and 10 after the chemo-treatment and at sacrifice (14 or 28 days). An autopsy was performed and tumor mass was assessed.
Cancer Cell Lines. Methylcholanthrene (MCA) induced sarcoma cell line expressing the exogenous antigen ovalbumin (OVA) was grown in DMEM or RPMI 1640 supplemented with 2 mM L-glutamine, 10 mM HEPES, 20 μM 2-mercaptoethanol, 150 U/mL streptomycin, 200 U/mL penicillin, and 10% heat-inactivated FBS. 1×10^6 tumor cells were injected in the flank of the mice 6 days prior to the chemotherapy.
Tumor Growth Evaluation. Growth of tumors was monitored every 2 d by using calipers, and tumor volume was calculated by using the formula length×width×width×0.52 mm^3.

[2] = Example 1: body weight and haematological toxicity of chemotherapy in tumor-bearing mice
Protocol: Mice. Inbred eight-week-old C57BL/6 (H-2b) mice were used in the experiments. Mice were inoculated subcutaneously (s.c.) on the left flank with 1×10^6 tumor cells, and tumor growth was monitored every 2 days by caliper measurement. 6 days after the tumor inoculation the animals were treated either with oxaliplatin or doxorubicin. Tumor growth was monitored every two days after the chemotherapeutic treatment and they were sacrificed after two weeks of tumor implantation. Some experiments were carried out until 28 days post-chemo to better assess tumor growth.
Body weight was assessed every two days until sacrifice.
Blood samples were obtained at day 2 and 4 after the chemo-treatment, at day 10 and at sacrifice (14 or 28 days). An autopsy was performed and tumoral mass was assessed.
Haematological Evaluation. Red blood cell enumeration, hemoglobin and hematocrit were measured at 2, 4, 10, 14 and 28 days.
White blood cell counts and differential leukocyte formulation were examined at the same time points. Blood samples were used in addition to determine immune cell populations.
Flow Cytometric Analysis. Cell subset analysis of the CD11c^+, CD11b^+Gr-1^+ and CD11b^+Gr-1^−, CD14^+, CD19^+, CD16^+, CD56^+, CD3^+, CD8^+, CD4^+ was performed. The battery of antibodies used permitted the evaluation of: B and T cell subsets NK, NKT cells, macrophages, dendritic cells, granulocytes.

NK cell = details: about 750 mg per day for two weeks; cited from earlier work

CCNC(=O)CC[C@H](N)C(=O)O [L-theanine]
expansion of γδ T cells (γδ T cells): 15 fold

N=C(N)NCCC[C@H](N)C(=O)O [arginine, L-arginine]
fall of erythrocytes (RBC) ([1]; between days 6 and 10 post-chemo (FIG. 3)): prevented the marked fall of erythrocytes
immune cell population / concentration [1]: increase immune cell concentration
loss of CD3+ cells ([1]; flow cytometry, around 10 days post chemotherapy): partially modulated
tumor size (MCA-OVA tumor cells; combination with chemotherapy versus chemotherapy alone (FIG. 4)): further reduced the tumor size
progression of the implanted tumor (MCA-OVA tumor cells; compared to other diet groups): delayed progression of the implanted tumor

NC(=O)NCCC[C@H](N)C(=O)O [citrulline, L-citrulline]
Global lymphocyte population [1]: less depressed

NC(=O)CC[C@H](N)C(=O)O [glutamine]
Global lymphocyte population [1]: less depressed

O=C1[O][Pt]2([NH][C@@H]3CCCC[C@H]3[NH]2)[O]C1=O [oxaliplatin]
Maximal weight loss ([2]; maximal dose 10 mg/kg, of initial body weight): around 15%
leukocyte counts ([2]; recovery starting after 7 days post chemotherapy): higher that the baseline counts
Maximal weight loss ([1]; maximal dose 10 mg/kg): around 15%

lactoferrin
toxicity (bone marrow / blood cells) ([1]; chemotherapy treated group versus control (FIG. 11)): less toxicity
immune cell population / concentration [1]: increase in their immune cell population
Global lymphocyte population [1]: less depressed
leukocytic increase (white blood cell counts) ([1]; oxaliplatin treated animals, after day ten): leukocytic increase tended to be higher

vitamin E
NK cell cytolytic activity (NK cell): significantly improved
NKG2D expression (NK cell): small but consistent induction
